Data taken from PMC9298260, “An Immunomodulatory Peptide Dendrimer Inspired from Glatiramer Acetate” (Angewandte Chemie (International Ed. in English), 2021).

Columns and labels:
[1] = test system: IL-1Ra release from human primary monocytes; test: IL-1Ra release from human primary monocytes, immunoassay (ELISA) of supernatants; format: cell-based; details: primary human monocytes of healthy donors, 25 and 50 μg mL^−1, 48 h
Protocol: (§1) As an activity screen we focused on interleukin‐1 receptor antagonist (IL‐1Ra), a cytokine released by circulating antigen presenting cells (APC) in response to GA.[15, 35] […] To test our dendrimers, we quantified by immunoassay the release of IL‐1Ra from human primary monocytes of healthy donors, an easily accessible type of APC, stimulated or not by addition of lipopolysaccharide (LPS), which in our hands provided a reliable read‐out.[15] We tested at defined weight/volume (25 and 50 μg mL^−1 compound as typically reported for GA)[15, 35] to account for a possible activity increase with MW as often observed with dendrimers when using molarity. In the initial screen the levels of secreted IL‐1Ra remained below 1 ng mL^−1 for all the smaller test compounds as well as with the linear peptide analogs of GA.
(§2) Figure 2 Cytokine level of IL‐1Ra in supernatants of primary human monocytes of healthy donors treated with peptide dendrimers, evaluated by ELISA (bars, left vertical axis) and mRNA levels (▴, right vertical axis). […] For mRNA levels evaluation, 2×10^6 cells 3 mL^−1 in 6 well plates were incubated with 50 μg mL^−1 dendrimer or GA for 18 h. […]
(§3) Enzyme-linked immunosorbent assay (ELISA)
(§4) Monocytes (5×10^4 cells/200 μL well; 96-well plates) were preincubated for 1 h with or without compounds in RPMI-1640 medium supplemented with 10% heat-inactivated FBS, 50 μg/mL streptomycin, 50 U/mL penicillin, 2 mM L-glutamine, and 5 μg/mL polymyxin B sulfate and then cultured for 48 h in the presence or absence of LPS (100 ng/mL) (2). The production of IL-1Ra was measured in culture supernatants by commercially available enzyme immunoassay according to manufacture protocol.
(§5) Figure S2. Cytokine level of IL-1Ra in supernatants of monocytes for active dendrimers and analogues evaluated by ELISA assay on primary human monocytes of healthy donors. 5×10^4 cells/200 µL in 96 well plates, were incubated with dendrimers or GA as a control for 48 h in presence or absence of LPS (100 ng/mL), in a range of concentrations (50-25 µg/mL) (mean ± SD, n = 2 different experiments). The results are present as the difference between each sample and the non-treated sample to take into account the difference between base line for each donor.
(§6) Figure S3. Cytokine level of IL-1Ra in supernatants of monocytes for active dendrimers and […]
(§7) presence or absence of LPS (100 ng/mL), in a range of concentrations (100-12.5 µg/mL) (mean ± SD, n = 3 different experiments). […]

[2] = test system: IL-1Ra release from human primary monocytes; test: as above; format: cell-based; design: key: +: Ability to induce IL-1Ra on primary monocytes after 48 h of incubation; Ability to induce IL-1Ra on primary monocytes after 48 h of incubation; details: Table S1 initial library; primary monocytes, 48 h
Protocol: as §1, §2, §3, §4, §5, §6, §7

[3] = Circular dichroism spectroscopy; format: physicochemical; details: 100 μg/mL, 8 mM phosphate buffer pH 7.2/7.4
Protocol: In terms of stereochemistry, activity was lost with D‐enantiomers D‐1 and D‐4, similar to the inactivity reported for D‐enantiomeric GA.[2]
Circular dichroism (CD) experiments were measured on a Jasco J-715 Spectropolarimeter. All the experiments were performed using Hellma Suprasil 110-QS 0.1 cm cuvettes. For each peptide, the measurements were performed in phosphate buffer (PB, pH=7.2, 8 mM) and in the presence of 5 mM dodecylphosphocholine. The concentration of the peptides was 100.0 μg/mL and each sample was measured using one accumulation. The scan rate was 10 nm/min, pitch 0.5 nm, response 16 sec and bandwidth 1.0 nm. The nitrogen flow was kept >8.5 L/min. After each measurement, the cuvettes were washed successively with 1 M HCl, milli-Q H2O and PB buffer. The baseline was recorded under the same conditions and subtracted manually.
Figure S12. Circular dichroism spectra of GA, 1 and 4 (100 μg/mL) in 8 mM phosphate buffer at pH 7.4 (a) or in presence of 5 mM dodecylphosphocholine. Percentage of α-helix and β- sheet was processed by Dichroweb using the CONTIN analysis program and reference set 3.
(1 picture or pasted object on this page, not shown here)

[4] = test system: IL-1β; test: IL-1β time profile in monocytes, RT-qPCR; format: cell-based, human; details: 50 µg/mL, inactivated and LPS (100 ng/mL) activated
Protocol: For closer characterization, we selected dendrimer 1 due to its smaller size and the presence of a cysteine residue that could be used for labelling. […] Furthermore, dendrimer 1 induced the release of IL‐1Ra both with and without LPS activation, but in the latter case the effect was detected only after 18 h incubation (Figure S5e/f).
Enriched monocytes after Percoll centrifugation (4×10^6 cells/3 mL well; 6-well plates) were preincubated for 1 h with or without compounds in RPMI-1640 medium supplemented with 10% heat-inactivated FBS, 50 μg/mL streptomycin, 50 U/mL penicillin, 2 mM L-glutamine, and then incubated for the indicated duration. After the incubation cells were collected, total RNA was extracted, reverse transcribed and analyzed by SYBR Green Master Mix. As a housekeeping gene was used Actin 5'-CAC TGG GGG CTA CTG GAC-3', 3'-AACATGGTGTTGGCAGAAACT-5', IL-1Ra 5'-TTCCTGTTCCATTCAGAGACG -3', 3'-CTTCTGGTTAACATCCCAGATTC -5'.
Figure S5. Dendrimer 1 affected mRNA levels in both LPS -activated and resting monocytes.
Monocytes 4 ×10^6 cells/3 mL in 6 well plates were incubated for indicated time with 50 µg/mL of 1 or without any treatment (NT) (a, c, e); or preincubated for 1 h with 100 ng/mL of LPS, and then with 50 µg/mL of 1 (b, d, f) or without any treatment (NT). […]

With “(KA)8(KAK)4(KEKA)2KAKEAYCA-NH2 [compound 1, G3 peptide dendrimer]” the “IL-1Ra release activity (in words)” value [1] was “comparable or higher than GA”, the “Act. (ability to induce IL-1Ra)” value [2] was “+” and the “conformation by CD spectra” value [3] was “unordered conformation”. The “production of IL-1β” value [4] was “significantly inhibited”.
